Reference: US6541621B1, “Hypoxia inducible promoter” (Purdue University Research Foundation, priority 1997, dated 2003)
“Also recorded” adds a separate entry of the source.

Experiments:
[1] = test system: Alcohol dehydrogenase (Adh) gene; experiment: Northern blot of total RNA from suspension cells with or without cycloheximide, maize Adh probe; type: cell-based, rice; settings: for Adh transcripts: cycloheximide in the presence of O2, suspension cells
Method: Two-week-old uniform seedlings of rice (IR54 variety) were transferred to two liter flasks and subjected to anaerobic conditions. Seedlings were submerged in distilled water through which nitrogen gas was continuously bubbled. The anaerobic treatment was conducted in the dark at 25° C. Control seedlings were maintained in the dark at 25° C. Tissues were harvested and immersed in liquid nitrogen. Extraction of RNA was carried out according to the procedure of Logmann et al. (Anal Biochem 163: 16-20, 1987) with modifications. The frozen tissue (2 gm) was ground in liquid nitrogen in an autoclaved mortar and pestle, and transferred to autoclaved plastic centrifuge tubes. Extraction buffer (4M guanidine hydrochloride, 20 mM MES, 20 mM EDTA, 4 ml/g tissue) was added to each tube. After vigorous shaking and complete mixing the suspension was extracted once with phenol:chloroform:isoamyl alcohol (25:24:1) and centrifuged for 45 minutes at room temperature at 10,000 rpm in a Beckman centrifuge using JA-20 rotor. Then 0.2 volumes of 1 M acetic acid [diethyl pyrocarbonate (DEPC) -treated] were added to the supernatant to acidify the contents, and the RNA was precipitated by adding 0.7 volumes of ethanol after 1 hour incubation at −80° C. following centrifugation at 10,000 rpm for 10 minutes. The RNA pellet was subsequently dissolved in DEPC-treated water and reprecipitated using ⅓ volume of 8 M LiCl (overnight at 4° C.). The RNA sample was subsequently washed with 80% ethanol and dissolved in DEPC-water after drying, and quantified spectrophotometrically. Suspension cultures of Radon variety were also treated in the same way under anaerobic conditions. Cycloheximide was added at a final concentration of 100 μM, and anaerobic conditions were applied for various time periods after 30 minutes pretreatment. RNA was isolated using the same procedure described above.
Ten μg of total RNA isolated from suspension cells (Radon variety) was loaded in each lane and was resolved in 1.2% formaldehyde-agarose gel according to standard procedures. […]

[2] = test system: pdc genes; experiment: Northern blot of total RNA from suspension cells under anaerobic conditions with or without cycloheximide, common pdc probe; type: cell-based, rice; settings: 100 μM cycloheximide, suspension cells (Radon variety)
Method: Two-week-old uniform seedlings of rice (IR54 variety) were transferred to two liter flasks and subjected to anaerobic conditions. Seedlings were submerged in distilled water through which nitrogen gas was continuously bubbled. The anaerobic treatment was conducted in the dark at 25° C. Control seedlings were maintained in the dark at 25° C. Tissues were harvested and immersed in liquid nitrogen. Extraction of RNA was carried out according to the procedure of Logmann et al. (Anal Biochem 163: 16-20, 1987) with modifications. The frozen tissue (2 gm) was ground in liquid nitrogen in an autoclaved mortar and pestle, and transferred to autoclaved plastic centrifuge tubes. Extraction buffer (4M guanidine hydrochloride, 20 mM MES, 20 mM EDTA, 4 ml/g tissue) was added to each tube. After vigorous shaking and complete mixing the suspension was extracted once with phenol:chloroform:isoamyl alcohol (25:24:1) and centrifuged for 45 minutes at room temperature at 10,000 rpm in a Beckman centrifuge using JA-20 rotor. […] The RNA sample was subsequently washed with 80% ethanol and dissolved in DEPC-water after drying, and quantified spectrophotometrically. […]

[3] = test system: rice suspension cells; experiment: Protein synthesis in rice suspension cells; type: cell-based; settings: cycloheximide at 20 to 300 μM
[4] = test system: rice suspension cells; experiment: GUS activity of promoter-uidA construct shot into rice suspension cells; type: cell-based; settings: 2.38 kb region fused to the uidA gene

## C[C@@H]1C[C@@H]([C@H](O)CC2CC(=O)NC(=O)C2)C(=O)[C@@H](C)C1 [cycloheximide]
[1]; 100 μM cycloheximide, anaerobic conditions, suspension cells
  induction of Adh gene: down-regulated; also recorded: reduced induction
[1]
  Adh transcripts: induced Adh transcripts
[1]; listed as Cycloheximide
  Adh transcripts: induced Adh messages
[2]
  induction of pdc genes: reduce the induction of pdc genes; also recorded: reduced induction
[3]
  protein synthesis: reduce protein synthesis

## 2.38 kb region: about 2.38 kb 5' upstream region of the rice pdc2 gene (hypoxia inducible promoter), fused to the uidA gene
[4]
  GUS activity: showed GUS activity
